The values that follow come from US8227618B2, “Amine-derivatives having NPY Y5 receptor antagonistic activity and the uses thereof” (Shionogi & Co., Ltd., priority 2009, dated 2012).

Broadly, the IC50 is the midpoint of a concentration-inhibition curve.

In one series the target is T1, mouse NPY Y5 receptor (Mus musculus, UniProt O70342).
T1 construct: expressed in transfected cells
T1 sequence (O70342 1-466): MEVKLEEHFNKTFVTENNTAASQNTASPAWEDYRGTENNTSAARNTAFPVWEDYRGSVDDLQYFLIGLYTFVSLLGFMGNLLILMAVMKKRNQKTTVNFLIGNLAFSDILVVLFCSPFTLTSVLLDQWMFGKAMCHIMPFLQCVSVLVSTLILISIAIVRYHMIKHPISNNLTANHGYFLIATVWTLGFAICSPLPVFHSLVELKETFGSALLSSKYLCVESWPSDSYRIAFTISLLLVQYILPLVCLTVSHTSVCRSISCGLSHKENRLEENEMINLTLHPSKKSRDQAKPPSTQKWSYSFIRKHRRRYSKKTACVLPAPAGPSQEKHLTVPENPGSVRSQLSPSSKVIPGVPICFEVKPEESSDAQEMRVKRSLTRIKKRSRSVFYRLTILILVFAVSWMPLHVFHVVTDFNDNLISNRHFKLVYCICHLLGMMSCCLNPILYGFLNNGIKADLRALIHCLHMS
The series is described as follows: Affinity for mouse NPY Y5 receptor ([125I] peptide YY binding, CHO cell membranes). As to conditions: CHO membranes expressing mouse NPY Y5 receptor, [125I] peptide YY 60 pM. The source says:
cDNA sequence encoding a mouse NPY Y5 receptor (Biochim. Biophys. Acta 1328:83-89, 1997) was cloned in a vector (pME18S, Takebe et al. Mol. Cell. Biol. 8, 466-472). The obtained expression vector was transfected into CHO cells as a host by using Lipofect AMINE reagent (Trademark, Gico BRL Co., Ltd.) according to the instruction manual. The cells that stably express mouse NPY Y5 receptor were obtained.
The membranes prepared from the CHO cells expressing mouse NPY Y5 receptor, the compound of this invention and 30,000 cpm [^125I] peptide YY (60 pM of final concentration: Amersham) were incubated in the assay buffer (20 mM HEPES-Hanks buffer containing 0.1% bovine serum albumin, pH 7.4) at 25° C. for 2 hours, and then the membrane was filtered from the mixture through a glassfilter (GF/C) presoaked with 1% polyethyleneimine. After washing with 50 mM Tris-HCl buffer (pH 7.4), radioactivity retained on the filters was quantified with a gamma counter.
Nonspecific binding was defined as the amount of radioactivity bound to the membranes after incubation in the presence of 200 nM of peptide YY. The 50% inhibitory concentration of the test compound against the specific peptide YY binding (IC50 value) was calculated (Inui, A. et al. Endocrinology 131, 2090-2096 (1992)).

For a further series, the target named is T2, NPY Y5 receptor (Mus musculus, UniProt O70342).
T2 construct: from tissue; host or cells: brain of living male C57BL/6J mice
T2 sequence (O70342 1-466): T1 sequence (O70342 1-466)
The series can be described thus: Inhibition of Y5 agonist-induced food intake in mice. The class given is in vivo, C57BL/6J mice. As to conditions: 4 hours after dosing. As to the method:
Under diethylether anesthesia the skull of male C57BL/6J mice (12-14 week old, 25-30 g) was exposed by making an incision about 1-cm long from external occipital crest to nasal dorsum, and then drilled in the 1-mm lateral position to the left following 1-mm posterior from bregma. After recovery from anesthesia mice were dosed with either 0.5% hydroxypropylmethyl cellulose solution (vehicle, Shin-Etsu Chemical Co., Ltd) or the compounds of this invention suspended in the 0.5% hydroxypropylmethyl cellulose solution. At one hour after the treatment, each animal received saline or a NPY Y5 receptor specific agonist, [cPP^1-7, NPY^19-23, Ala^31, Aib^32, Gln^34]-hPancreatic Polypeptide (0.1 nmol/1.5 μL saline/mouse) through the skull opening using a canula. Residual food was measured at 2 and 4 hours after the treatment. The inhibition ratio of Y5 agonist-induced food intake by the compounds was calculated as follows; inhibition ratio (%)=[1−(food intake (g) by the compound treated and Y5 agonist received mice−food intake (g) by the vehicle treated and saline received mice)/(food intake (g) by the vehicle treated and Y5 agonist received mice−food intake (g) by the vehicle treated and saline received mice)]×100.

The next series addresses T3, P-gp (Mus musculus, UniProt P21447).
T3 construct: effectively excreted through P-gp from the brain to vessels; from tissue; host or cells: brain / blood-brain barrier of living C57BL/6J mice
The series is described as follows: Potential for drug-drug interactions through P-gp in vivo (Kp with/without cyclosporin A). As to conditions: mice, Kp with versus without cyclosporin A (20 mg/kg). The procedure: To examine the potential for drug-drug interactions through P-gp in vivo, the Kp values of compounds of this invention with (KpCSA) or without (KpCont.) cyclosporin A (20 mg/kg), a P-gp inhibitor, were calculated. The KpCSA value of Compound (I-72) was 1.14, and the calculated KpCSA KpCont. ratio was 0.9.
On the other hand the potential for drug-drug interactions through P-pg of amide compound B which has similar structure of Compound (1-72) was also examined in mice. The KpCont. and KpCSA were 0.04 and 0.84, respectively.

Series [1] is described as follows: Suppression of body weight gain in high-fat diet-induced obese mice. The series is classed as in vivo, C57BL/6J mice. As to conditions: 6 mg/kg b.i.d. for 3 weeks, versus vehicle. The procedure: Prior to administration of the compounds of this invention, male C57BL/6J mice were given a high-fat diet to induce obese. The high-fat diet-induced obese mice (13-14 week old, body weight 28-33 g) were dosed with 0.5% hydroxypropylmethyl cellulose solution (vehicle, Shin-Etsu Chemical Co., Ltd) or the compounds of this invention suspended in the 0.5% hydroxypropylmethyl cellulose solution twice a day (b.i.d.) for 3 weeks with the same diet. The changes in body weight were monitored daily.

[2] abbreviates: rows without asterisk (6 mg/kg per text).

T3 sequence (P21447 whole entry): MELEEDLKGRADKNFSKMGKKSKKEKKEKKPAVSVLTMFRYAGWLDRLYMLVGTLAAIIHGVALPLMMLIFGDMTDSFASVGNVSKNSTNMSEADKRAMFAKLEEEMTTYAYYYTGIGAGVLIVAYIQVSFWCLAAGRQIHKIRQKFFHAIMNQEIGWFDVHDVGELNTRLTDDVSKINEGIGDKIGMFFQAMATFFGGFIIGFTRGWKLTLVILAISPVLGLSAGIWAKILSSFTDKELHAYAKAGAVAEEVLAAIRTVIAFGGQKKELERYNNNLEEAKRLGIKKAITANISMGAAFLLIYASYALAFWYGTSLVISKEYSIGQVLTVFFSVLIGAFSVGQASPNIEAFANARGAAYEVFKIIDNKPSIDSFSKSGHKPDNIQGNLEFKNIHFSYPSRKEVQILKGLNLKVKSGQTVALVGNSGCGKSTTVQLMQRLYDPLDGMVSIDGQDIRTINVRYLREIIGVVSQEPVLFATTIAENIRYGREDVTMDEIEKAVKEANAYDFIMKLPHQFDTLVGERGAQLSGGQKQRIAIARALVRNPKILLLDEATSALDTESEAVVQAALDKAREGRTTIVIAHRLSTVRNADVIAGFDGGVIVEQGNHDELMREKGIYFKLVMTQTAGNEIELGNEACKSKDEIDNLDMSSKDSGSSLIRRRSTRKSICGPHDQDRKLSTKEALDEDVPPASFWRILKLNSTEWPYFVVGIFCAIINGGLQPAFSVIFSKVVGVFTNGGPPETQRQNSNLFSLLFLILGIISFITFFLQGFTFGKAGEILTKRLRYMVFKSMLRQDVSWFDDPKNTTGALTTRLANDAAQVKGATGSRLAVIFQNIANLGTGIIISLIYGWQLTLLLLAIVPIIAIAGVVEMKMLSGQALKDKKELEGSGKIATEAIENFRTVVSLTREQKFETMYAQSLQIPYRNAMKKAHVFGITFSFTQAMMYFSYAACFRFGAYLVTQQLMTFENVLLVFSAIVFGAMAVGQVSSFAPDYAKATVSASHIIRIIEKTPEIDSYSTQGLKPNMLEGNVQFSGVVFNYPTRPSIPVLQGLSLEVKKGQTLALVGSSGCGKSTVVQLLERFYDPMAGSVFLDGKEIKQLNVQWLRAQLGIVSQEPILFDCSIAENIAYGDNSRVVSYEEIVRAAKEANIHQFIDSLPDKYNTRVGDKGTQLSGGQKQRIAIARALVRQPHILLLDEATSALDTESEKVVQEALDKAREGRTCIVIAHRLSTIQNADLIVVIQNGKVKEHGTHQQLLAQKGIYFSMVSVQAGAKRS

On mouse NPY Y5 receptor, `CC(C)S(=O)(=O)NC[C@H]1CC[C@H](Nc2ccc(OC3CCCC3)nn2)CC1` [Ij-52] had an IC50 of 0.99 nM.
The same measure, in the same setting: for `CC(C)(C)S(=O)(=O)NC[C@H]1CC[C@H](Nc2ccc3ccccc3n2)CC1` [Ij-59] the value was 2.5 nM.
At mouse NPY Y5 receptor, `CC(C)(C)S(=O)(=O)NC[C@H]1CC[C@H](Nc2nc3cc(F)ccc3o2)CC1` [Ij-158] displayed an IC50 of 0.85 nM. Besides, the “Inhibition ratio of Y5 agonist-induced food intake” value (shortened to “Inhibition ratio”) at NPY Y5 receptor (setting [2]) is 70.5%.
At mouse NPY Y5 receptor, `CCC(C)S(=O)(=O)NC[C@H]1CC[C@H](Nc2nc3ccc(F)cc3o2)CC1` (stereo partly shown) [Ij-161] yielded an IC50 of 0.69 nM. The “Inhibition ratio” value at NPY Y5 receptor (*Dose: 1.5 mg/kg) turned out to be 15.8%*.
For `CC(C)S(=O)(=O)NC[C@H]1CC[C@H](Nc2nc3cc(F)ccc3s2)CC1` [Ij-151] the same measures were 0.12 nM and 78.4%*.
Consider `C[C@@H]1CN(c2ccc(NC(=O)[C@H]3CC[C@H](NS(=O)(=O)C(C)(C)C)CC3)cc2)C[C@H](C)O1` [B, reference compound], for which, at P-gp, the KpCSA/KpCont. ratio came to 20.5.
In the case of `CCS(=O)(=O)NC[C@H]1CC[C@H](Nc2ccn(-c3ccccc3F)n2)CC1` [Ij-112], in series [1], the Body weight gain result is listed as “suppresses Body Weight Gain”.
At mouse NPY Y5 receptor, `CCC(C)S(=O)(=O)NC[C@H]1CC[C@H](Nc2nc3cc(F)ccc3o2)CC1` (stereo partly shown) [Ij-160] came in with an IC50 of 0.55 nM. In addition, at NPY Y5 receptor (*Dose: 1.5 mg/kg), the “Inhibition ratio” value stood at 36.6%*.
For the compound `CC(C)(C)S(=O)(=O)NC[C@H]1CC[C@H](Nc2nc3ccc(F)cc3o2)CC1` [Ij-159], at mouse NPY Y5 receptor, the IC50 came out at 0.6 nM. The “Inhibition ratio” value on NPY Y5 receptor (setting [2]) was 83.2%.
For the compound `CCS(=O)(=O)NC[C@H]1CC[C@H](Nc2ccc(-c3ccccc3)cn2)CC1` [Ij-4], on NPY Y5 receptor (setting [2]), the “Inhibition ratio” value is 88.2%.
`Cn1c(=O)oc2cc(NC[C@H]3CC[C@H](NS(=O)(=O)C(C)(C)C)CC3)cc(F)c21` [Ii-45]: the “Inhibition ratio” value on NPY Y5 receptor (setting [2]) amounted to 76.2%. Further, the Body weight gain entry in series [1] is recorded as “suppresses Body Weight Gain”.
With `CC(C)S(=O)(=O)N[C@H]1CC[C@H](CNc2cc(F)cc(N3CCOCC3)c2)CC1` [Ii-55], the “Inhibition ratio” value on NPY Y5 receptor (setting [2]) stood at 64.3%.
The compound `CC(C)S(=O)(=O)NC[C@H]1CC[C@H](Nc2ccn(-c3ccccc3Cl)n2)CC1` [Ij-157] yielded an IC50 on mouse NPY Y5 receptor of 0.16 nM.
At mouse NPY Y5 receptor, `CC(C)S(=O)(=O)NC[C@H]1CC[C@H](Nc2ccc(C(F)(F)F)cn2)CC1` [Ij-1] returned an IC50 of 0.7 nM.
The same measure, in the same setting: for `CCCn1c(=O)oc2cc(NC[C@H]3CC[C@H](NS(=O)(=O)CC)CC3)ccc21` [Ii-16] the value was 1.2 nM.
Take `CCS(=O)(=O)NC[C@H]1CC[C@H](Nc2nc3ccccc3s2)CC1` [Ij-149]: at mouse NPY Y5 receptor, the half-inhibitory concentration (IC50) is 0.92 nM. Also, on NPY Y5 receptor (setting [2]), the “Inhibition ratio” value is 62.6%.
For `CC(C)S(=O)(=O)NC[C@H]1CC[C@H](Nc2nc3cc(Cl)ccc3s2)CC1` [Ij-154], in that order: 0.17 nM and 81.3%.
On mouse NPY Y5 receptor, `CCS(=O)(=O)N[C@H]1CC[C@H](CNc2ccc(S(=O)(=O)c3ccc(F)cc3)cc2)CC1` [Ii-34] displayed an IC50 of 11 nM.
With `CC(C)(C)S(=O)(=O)NC[C@H]1CC[C@H](Nc2nc3ccc(C(F)(F)F)cc3s2)CC1` [Ij-66], the IC50 on mouse NPY Y5 receptor turned out to be 0.39 nM.
Take `CC(C)(C)S(=O)(=O)NC[C@H]1CC[C@H](Nc2ccn(-c3ccccc3F)n2)CC1` [Ij-110]: at NPY Y5 receptor (setting [2]), the “Inhibition ratio” value was found to be 90.3%.
`C[C@@H]1CN(c2ccc(NC[C@H]3CC[C@H](NS(=O)(=O)C(C)(C)C)CC3)cc2)C[C@H](C)O1` [Compound I-72]: the KpCSA/KpCont. ratio on P-gp is 0.9.
The compound `CC(C)S(=O)(=O)NC[C@H]1CC[C@H](Nc2nc3cc(F)ccc3o2)CC1` [Ij-155] yielded an IC50 at mouse NPY Y5 receptor of 0.88 nM. Also, the “Inhibition ratio” value on NPY Y5 receptor (*Dose: 1.5 mg/kg) stood at 56.1%*.
The compound `CCS(=O)(=O)NC[C@H]1CC[C@H](Nc2nc3ccccc3o2)CC1` [Ij-150] registered an IC50 at mouse NPY Y5 receptor of 4.66 nM. Moreover, at NPY Y5 receptor (setting [2]), the “Inhibition ratio” value came to 25.3%.
In turn, `CC(C)S(=O)(=O)NC[C@H]1CC[C@H](Nc2nc3ccc(F)cc3s2)CC1` [Ij-152] yielded a half-inhibitory concentration (IC50) on mouse NPY Y5 receptor of 0.35 nM. Moreover, on NPY Y5 receptor (*Dose: 1.5 mg/kg), the “Inhibition ratio” value was found to be 62.6%*.
The compound `CC(C)S(=O)(=O)NC[C@H]1CC[C@H](Nc2nc3cccc(F)c3s2)CC1` [Ij-153] showed an IC50 at mouse NPY Y5 receptor of 0.12 nM. Also, the “Inhibition ratio” value at NPY Y5 receptor (setting [2]) came out at 73.0%.
Consider `CC(C)S(=O)(=O)NC[C@H]1CC[C@H](Nc2nc3ccc(F)cc3o2)CC1` [Ij-156], for which the IC50 on mouse NPY Y5 receptor amounted to 0.68 nM. Besides, the “Inhibition ratio” value on NPY Y5 receptor (**Dose: 12.5 mg/kg) is 90.4%**.
For `CC1CC(C)CN(c2cccc(NC[C@H]3CC[C@H](NS(=O)(=O)C(C)(C)C)CC3)c2)C1` (stereo partly shown) [Ii-1], the IC50 on mouse NPY Y5 receptor turned out to be 0.1 nM.
